Key:
[1] = target: T1, ΔF508-CFTR (Homo sapiens, UniProt P13569, DEL508-508); assay: CFTR cell surface levels using HRP-tagged ΔF508-CFTR expressing CFBE cells, in the presence of a co-corrector; format: cell-based
T1 construct: host or cells: CFBE41o-, doxycycline-inducible
How it was run: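 Chemiluminescent read-out of surface HRP (15 min, dark) after PBS washes. Activity is normalized as 100×(sample−DMSO)/(3 μM co-corrector alone−DMSO).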

[2] = target: T1, ΔF508-CFTR; assay: CFTR cell surface levels using HRP-tagged ΔF508-CFTR expressing CFBE cells, intrinsic corrector capacity; format: cell-based; design: % Activation: concentration or dose not given beside the values
How it was run: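 Read-out: chemiluminescent HRP activity of ECL4-HRP-tagged ΔF508-CFTR at the cell surface, 15 min substrate in dark. Normalized as 100×(sample−DMSO)/(positive control−DMSO).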

[3] = HRP-tagged ΔF508-CFTR CFBE cells, in the presence of 3 μM co-corrector
[4] = HRP-tagged ΔF508-CFTR CFBE cells, in the presence of 3 μM co-corrector, read-out: EC50
[5] = HRP-tagged ΔF508-CFTR expressing CFBE41o- cells, compound alone (intrinsic corrector capacity), 20 hours at 33° C.
[6] = HRP-tagged ΔF508-CFTR expressing CFBE41o- cells, compound alone (intrinsic corrector capacity), 20 hours at 33° C., read-out: EC50

T1 sequence (P13569 with tags, fused parts or gaps DEL508-508): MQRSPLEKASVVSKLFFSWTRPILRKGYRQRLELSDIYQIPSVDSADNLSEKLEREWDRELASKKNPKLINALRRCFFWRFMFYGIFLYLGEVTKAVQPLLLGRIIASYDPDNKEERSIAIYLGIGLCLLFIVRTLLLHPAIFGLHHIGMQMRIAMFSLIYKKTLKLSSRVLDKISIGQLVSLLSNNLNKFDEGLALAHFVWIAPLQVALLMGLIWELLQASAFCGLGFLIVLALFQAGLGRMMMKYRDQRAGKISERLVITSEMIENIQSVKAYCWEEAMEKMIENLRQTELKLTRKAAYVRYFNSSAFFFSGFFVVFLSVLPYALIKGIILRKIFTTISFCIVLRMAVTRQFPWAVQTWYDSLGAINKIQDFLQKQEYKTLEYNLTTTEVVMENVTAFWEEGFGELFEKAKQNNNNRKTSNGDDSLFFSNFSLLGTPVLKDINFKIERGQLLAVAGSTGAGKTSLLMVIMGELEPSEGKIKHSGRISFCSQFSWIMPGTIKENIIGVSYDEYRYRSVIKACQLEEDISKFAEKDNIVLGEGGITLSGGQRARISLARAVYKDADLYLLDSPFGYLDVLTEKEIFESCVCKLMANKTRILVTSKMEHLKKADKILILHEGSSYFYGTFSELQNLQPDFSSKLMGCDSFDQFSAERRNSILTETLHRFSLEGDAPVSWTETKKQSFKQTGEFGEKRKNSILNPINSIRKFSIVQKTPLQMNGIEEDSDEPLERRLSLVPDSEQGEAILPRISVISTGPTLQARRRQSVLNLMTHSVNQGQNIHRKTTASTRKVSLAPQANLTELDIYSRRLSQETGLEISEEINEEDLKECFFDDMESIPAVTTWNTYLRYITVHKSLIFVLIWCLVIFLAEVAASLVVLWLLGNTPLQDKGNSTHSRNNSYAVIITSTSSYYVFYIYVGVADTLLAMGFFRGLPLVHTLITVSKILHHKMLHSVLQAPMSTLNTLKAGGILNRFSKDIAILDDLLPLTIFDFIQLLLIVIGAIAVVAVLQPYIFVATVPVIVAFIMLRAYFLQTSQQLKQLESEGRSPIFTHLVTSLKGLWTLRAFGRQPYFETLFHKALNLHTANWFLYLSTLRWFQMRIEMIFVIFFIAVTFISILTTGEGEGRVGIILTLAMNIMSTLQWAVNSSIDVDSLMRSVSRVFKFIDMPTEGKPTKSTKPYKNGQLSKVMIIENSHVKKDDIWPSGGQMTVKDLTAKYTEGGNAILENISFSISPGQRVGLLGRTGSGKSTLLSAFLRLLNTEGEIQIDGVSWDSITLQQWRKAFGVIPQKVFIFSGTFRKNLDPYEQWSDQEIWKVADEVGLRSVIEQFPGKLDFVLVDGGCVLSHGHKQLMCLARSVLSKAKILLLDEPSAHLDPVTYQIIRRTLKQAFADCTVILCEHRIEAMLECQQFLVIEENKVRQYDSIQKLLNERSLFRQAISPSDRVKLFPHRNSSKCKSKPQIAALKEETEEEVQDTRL

| SMILES | % Activation [1, 3] [%] | EC50 [1, 4] [µM] | % Activation [2, 5] [%] | EC50 [2, 6] [µM] | EC50 [1] [µM] | EC50 [2] [µM] |
| --- | --- | --- | --- | --- | --- | --- |
| CN1CCN(S(=O)(=O)NC(=O)c2cc(N3CCC(CN4CCCC4)CC3)c3c(C4CCC4)nn(-c4ccccc4)c3n2)CC1 [Compound 460, 3-cyclobutyl-N-(4-methylpiperazine-1-sulfonyl)-1-phenyl-4-{4-[(pyrrolidin-1-yl)methyl]piperidin-1-yl}-1H-pyrazolo[3,4-b]pyridine-6-carboxamide] | 306.75 | 0.505 | 125.8 | 0.596 |  |  |
| COC1CCN(c2cc(C(=O)NS(=O)(=O)C3CCS(=O)(=O)C3)nc3c2c(C2CCC2)nn3-c2ccccc2)CC1 (stereo not drawn) [Compound 143, 3-cyclobutyl-N-(1,1-dioxo-1λ^6-thiolane-3-sulfonyl)-4-(4-methoxypiperidin-1-yl)-1-phenyl-1H-pyrazolo[3,4-b]pyridine-6-carboxamide] | 217.8 | 0.834 | 107.15 | 1.11 |  |  |
| COCC1CCN(c2cc(C(=O)N3CCCCS3(=O)=O)nc3c2c(C2CCC2)nn3-c2ccccc2)CC1 [Compound 668, 2-{3-cyclobutyl-4-[4-(methoxymethyl)piperidin-1-yl]-1-phenyl-1H-pyrazolo[3,4-b]pyridine-6-carbonyl}-1λ^6,2-thiazinane-1,1-dione] | 307.4 | 0.257 | 89.495 | 0.384 |  |  |
| CN(C)S(=O)(=O)NC(=O)c1cc(N2CCC(N3CC4CC3CO4)CC2)c2c(C3CCC3)nn(-c3ccc(F)cc3)c2n1 (stereo not drawn) [Compound 532, 3-cyclobutyl-N-(dimethylsulfamoyl)-1-(4-fluorophenyl)-4-[4-(2-oxa-5-azabicyclo[2.2.1]heptan-5-yl)piperidin-1-yl]-1H-pyrazolo[3,4-b]pyridine-6-carboxamide] | 342.83 | 0.473 | 151.95 | 0.521 |  |  |
| COc1ccc(-c2cc(C(=O)NS(C)(=O)=O)nc3c2c(C)nn3-c2cccc(C)c2)cc1 [Compound 27, N-(methanesulfonyl)-4-(4-methoxyphenyl)-3-methyl-1-(3-methylphenyl)-1H-pyrazolo[3,4-b]pyridine-6-carboxamide] | 365.2 | 0.714 | 145.5 | 1.22 |  |  |
| CS(=O)(=O)NC(=O)c1cc(OCCCN2CCOCC2)c2c(C3CCC3)nn(-c3ccccc3)c2n1 [Compound 281, 3-cyclobutyl-N-(methanesulfonyl)-4-[3-(morpholin-4-yl)propoxy]-1-phenyl-1H-pyrazolo[3,4-b]pyridine-6-carboxamide] | 398.47 | 0.242 | 230.15 | 0.457 |  |  |
| O=C(NS(=O)(=O)N1CCC(N2CCCC2)CC1)c1cc(OCC2CCOCC2)c2c(C3CCC3)nn(-c3ccccc3)c2n1 [Compound 351, 3-cyclobutyl-4-[(oxan-4-yl)methoxy]-1-phenyl-N-[4-(pyrrolidin-1-yl)piperidine-1-sulfonyl]-1H-pyrazolo[3,4-b]pyridine-6-carboxamide] | 232.5 | 0.0811 | 50.87 | 0.0735 |  |  |
| CCOC(=O)N1CCC(NS(=O)(=O)NC(=O)c2cc(N3CCC(N4CCOCC4)CC3)c3c(C4CCC4)nn(-c4ccccc4)c3n2)CC1 [Compound 433, ethyl 4-[({3-cyclobutyl-4-[4-(morpholin-4-yl)piperidin-1-yl]-1-phenyl-1H-pyrazolo[3,4-b]pyridine-6-carbonyl}sulfamoyl)amino]piperidine-1-carboxylate] | 563.8 | 0.049 | 361.5 | 0.0965 |  |  |
| CC(C)c1nn(-c2ccc(F)c(F)c2)c2nc(C(=O)NS(C)(=O)=O)cc(-c3ccc(N4CCOCC4)cc3)c12 [Compound 127, 1-(3,4-difluorophenyl)-N-(methanesulfonyl)-4-[4-(morpholin-4-yl)phenyl]-3-(propan-2-yl)-1H-pyrazolo[3,4-b]pyridine-6-carboxamide] | 449.1 | 0.252 | 301.45 | 0.518 |  |  |
| COCC1CCN(c2cc(C(=O)NS(=O)(=O)CCO)nc3c2c(C2CCC2)nn3-c2ccccc2)CC1 [Compound 366, 3-cyclobutyl-N-(2-hydroxyethanesulfonyl)-4-[4-(methoxymethyl)piperidin-1-yl]-1-phenyl-1H-pyrazolo[3,4-b]pyridine-6-carboxamide] | 443.7 | 0.0827 | 264 | 0.298 |  |  |
| CCS(=O)(=O)NC(=O)c1cc(-c2cnc(N(C)C)nc2)c2c(C)nn(C3CCCCC3)c2n1 [Compound 50, 1-cyclohexyl-4-[2-(dimethylamino)pyrimidin-5-yl]-N-(ethanesulfonyl)-3-methyl-1H-pyrazolo[3,4-b]pyridine-6-carboxamide] | 300 | 1.08 | 109.8 | 1.68 |  |  |
| O=C(NS(=O)(=O)CCCN1CCOCC1)c1cc(N2CCC(N3CCCCC3)CC2)c2c(C3CCC3)nn(-c3ccccc3)c2n1 [Compound 454, 4-([1,4′-bipiperidin]-1′-yl)-3-cyclobutyl-N-[3-(morpholin-4-yl)propane-1-sulfonyl]-1-phenyl-1H-pyrazolo[3,4-b]pyridine-6-carboxamide] | 430.2 |  | 168.1 |  | 0.639 | 1.67 |
| CC(C)Oc1nn(C2CCCCC2)c2nc(C(=O)NS(C)(=O)=O)cc(-c3ccc(C(=O)N4CC(N(C)C)C4)cc3)c12 [Compound 640, 1-cyclohexyl-4-{4-[3-(dimethylamino)azetidine-1-carbonyl]phenyl}-N-(methanesulfonyl)-3-[(propan-2-yl)oxy]-1H-pyrazolo[3,4-b]pyridine-6-carboxamide] | 416.48 | 0.107 | 203.62 | 0.175 |  |  |
| CN(C)S(=O)(=O)NC(=O)c1cc(-c2ccc(CN3CCOCC3)cc2)c2c(C3CCC3)nn(C3CCCCC3)c2n1 [Compound 475, 3-cyclobutyl-1-cyclohexyl-N-(dimethylsulfamoyl)-4-{4-[(morpholin-4-yl)methyl]phenyl}-1H-pyrazolo[3,4-b]pyridine-6-carboxamide] | 289.95 | 0.112 | 140.1 | 0.179 |  |  |
| COCCC1CCN(c2cc(C(=O)NS(C)(=O)=O)nc3c2c(C(C)C)nn3-c2cccc(C)c2)CC1 [Compound 161, N-(methanesulfonyl)-4-[4-(2-methoxyethyl)piperidin-1-yl]-1-(3-methylphenyl)-3-(propan-2-yl)-1H-pyrazolo[3,4-b]pyridine-6-carboxamide] | 574.1 | 0.355 | 406.4 | 0.73 |  |  |
| CC(C)c1nn(-c2ccc(F)cc2)c2nc(C(=O)NS(C)(=O)=O)cc(OCC3CCCO3)c12 (stereo not drawn) [Compound 295, 1-(4-fluorophenyl)-N-(methanesulfonyl)-4-[(oxolan-2-yl)methoxy]-3-(propan-2-yl)-1H-pyrazolo[3,4-b]pyridine-6-carboxamide] | 298.07 | 0.697 | 129.6 | 1.05 |  |  |
| CS(=O)(=O)NC(=O)c1cc(N2CCC(N3CCCC(C#N)C3)CC2)c2c(C3CCC3)nn(-c3ccc(F)cc3)c2n1 (stereo not drawn) [Compound 566, 4-(3-cyano[1,4'-bipiperidin]-1'-yl)-3-cyclobutyl-1-(4-fluorophenyl)-N-(methanesulfonyl)-1H-pyrazolo[3,4-b]pyridine-6-carboxamide] | 708.8 | 0.4 | 365.1 | 0.112 |  |  |
| CS(=O)(=O)NC(=O)c1cc(N2CC3CC3C2)c2c(C3CCC3)nn(-c3ccccc3)c2n1 (stereo not drawn) [Compound 186, 4-(3-azabicyclo[3.1.0]hexan-3-yl)-3-cyclobutyl-N-(methanesulfonyl)-1-phenyl-1H-pyrazolo[3,4-b]pyridine-6-carboxamide] | 381.87 | 0.531 | 209.57 | 0.616 |  |  |
| O=C(NS(=O)(=O)N1CC(F)C1)c1cc(N2CCC(N3CCOCC3)CC2)c2c(C3CCC3)nn(-c3ccc(F)cc3)c2n1 [Compound 569, 3-cyclobutyl-N-(3-fluoroazetidine-1-sulfonyl)-1-(4-fluorophenyl)-4-[4-(morpholin-4-yl)piperidin-1-yl]-1H-pyrazolo[3,4-b]pyridine-6-carboxamide] | 436.13 | 0.0889 | 220.77 | 0.112 |  |  |
| CS(=O)(=O)NC(=O)c1cc(N2CCC(N3CCOCC3)CC2)c2c(C3CCC3)nn(-c3ccnc(C4CCOCC4)c3)c2n1 [Compound 490, 3-cyclobutyl-N-(methanesulfonyl)-4-[4-(morpholin-4-yl)piperidin-1-yl]-1-[2-(oxan-4-yl)pyridin-4-yl]-1H-pyrazolo[3,4-b]pyridine-6-carboxamide] | 303.9 | 0.693 | 139.7 | 1.55 |  |  |
| CC(C)c1nn(-c2ccnc(N3CCOCC3)c2)c2nc(C(=O)NS(C)(=O)=O)cc(OCC3CCOCC3)c12 [Compound 336, N-(methanesulfonyl)-1-[2-(morpholin-4-yl)pyridin-4-yl]-4-[(oxan-4-yl)methoxy]-3-(propan-2-yl)-1H-pyrazolo[3,4-b]pyridine-6-carboxamide] | 232.42 | 0.282 | 107.2 | 0.42 |  |  |

From US10259810B2, “N-sulfonylated pyrazolo[3,4-b]pyridin-6-carboxamides and method of use” (AbbVie S.à.r.l., priority 2015, dated 2019)
